US20110275583A1, “Synergistic active compound combinations” (priority 2010, published 2011)
Like-named read-outs stand apart in the source and are kept apart here.

Key:
Format in all cases: in vivo
[1] = test system: green peach aphid (Myzus persicae); assay: Myzus persicae test (spray treatment of infested cabbage leaves)
From the text: (§1) The expected action for a given combination of two active compounds can be calculated as follows, using the formula of S. R. Colby, Weeds 15 (1967), 20-22: • If • X is the kill rate, expressed as % of the untreated control, when employing active compound A at an application rate of m g/ha or in a concentration of in ppm, • Y is the kill rate, expressed as % of the untreated control, when employing active compound B at an application rate of n g/ha or in a concentration of n ppm and • E is the kill rate, expressed as % of the untreated control, when employing active compounds A and B at application rates of m and n g/ha or in a concentration of m and n ppm, • then
(§2) If the actual kill rate exceeds the calculated value, the action of the combination is superadditive, i.e. a synergistic effect is present. In this case, the actually observed kill rate must exceed the value calculated using the above formula for the expected kill rate (E).
(§3) Solvent: 78 parts by weight of acetone • • 1.5 parts by weight of dimethylformamide
(§4) Emulsifier: 0.5 part by weight of alkylaryl polyglycol ether
(§5) To produce a suitable preparation of active compound, 1 part by weight of active compound is mixed with the stated amounts of solvent and emulsifier, and the concentrate is diluted with emulsifier-containing water to the desired concentration.
Cabbage leaves (Brassica oleracea) which are heavily infested by the green peach aphid (Myzus persicae) are treated by spraying with the active compound preparation of the desired concentration.
After the desired period of time, the kill in % is determined. 100% means that all of the aphids have been killed; 0% means that none of the aphids have been killed. The kill rates determined are entered into Colby's formula.

[2] = test system: greenhouse red spider mite (Tetranychus urticae); assay: Tetranychus test, OP-resistant/spray treatment (bean leaf discs); settings: single active compound
From the text: as §1, §2, §3, §4, §5
Discs of bean leaves (Phaseolus vulgaris) which are infested by all stages of the greenhouse red spider mite (Tetranychus urticae) are sprayed with an active compound preparation of the desired concentration.
After the desired period of time, the effect in % is determined. 100% means that all of the spider mites have been killed; 0% means that none of the spider mites have been killed.

[3] = test system: armyworm (Spodoptera frugiperda); assay: Spodoptera frugiperda larvae test (sprayed cabbage leaves); settings: single active compound
From the text: as §1, §2, §3, §4, §5
Cabbage leaves (Brassica oleracea) are treated by being sprayed with the preparation of active compound of the desired concentration and are populated with the armyworm (Spodoptera frugiperda) while the leaves are still moist.
After the desired period of time, the kill in % is determined. 100% means that all caterpillars have been killed; 0% means that none of the caterpillars have been killed. The kill rates determined are entered, into Colby's formula.

[4] = test system: larvae of the mustard beetle (Phaedon cochleariae); assay: Phaedon cochleariae larvae test (sprayed cabbage leaves); settings: single active compound
From the text: as §1, §2, §3, §4, §5
Cabbage leaves (Brassica oleracea) are treated by spraying with the active compound preparation of the desired concentration and populated with larvae of the mustard beetle (Phaedon cochleariae) while the leaves are still moist.
After the desired period of time, the kill in % is determined. 100% means that all beetle larvae have been killed; 0% means that none of the beetle larvae have been killed. The kill rates determined are entered into Colby's formula.

[5] = Tetranychus urticae, foliar, 144 h, 6 d, read-out: Kill in % after 6 d
[6] = Spodoptera frugiperda, 144 h, 4 g/ha, 6 d, read-out: Kill in % after 6 d
[7] = Phaedon cochleariae, 144 h, 6 d, read-out: Kill in % after 6 d
[8] = Spodoptera frugiperda, 144 h, 6 d, read-out: Kill in % after 6 d
[9] = Phaedon cochleariae, 48 h, 0.8 g/ha, 2 d, read-out: Kill in % after 2 d
[10] = Myzus persicae, 24 h, after 1 d, read-out: Kill in % after 1d
[11] = Phaedon cochleariae, 48 h, 2 d, read-out: Kill in % after 2 d
[12] = Spodoptera frugiperda, 48 h, 2 d, read-out: Kill in % after 2 d
[13] = Phaedon cochleariae, 144 h, 0.8 g/ha, 6 d, read-out: Kill in % after 6 d
[14] = Spodoptera frugiperda, 144 h, 0.16 g/ha, 6 d, read-out: Kill in % after 6 d
[15] = Tetranychus urticae, foliar, 48 h, 2 d, read-out: Kill in % after 2 d
[16] = Tetranychus urticae, foliar, 48 h, 100 g/ha, 2 d, read-out: Kill in % after 2 d
[17] = Tetranychus urticae, foliar, 144 h, 100 g/ha, 6 d, read-out: Kill in % after 6 d
[18] = Myzus persicae, 144 h, single active compound, 6 d, read-out: Kill in % after 6 d
[19] = Myzus persicae, 24 h, 0.8 g/ha, after 1 d, read-out: Kill in % after 1d

## FC(F)(F)c1ccc(OCCCOc2c(Cl)cc(OCC=C(Cl)Cl)cc2Cl)nc1 [pyridalyl]
[1]; Myzus persicae, 144 h, 0.8 g/ha, single active compound, 6 d, read-out: Kill in % after 6 d
  pest or weed control at 0.8 g/ha: 0%
[2]; [5]
  pest or weed control at 20 g/ha: 10%
[3]; [6]
  pest or weed control at 4 g/ha: 17%

## CC1(C)C(C=C(Cl)Cl)C1C(=O)OC(C#N)c1cccc(Oc2ccccc2)c1 (stereo not drawn) [alpha-cypermethrin]
[4]; [7]
  pest or weed control at 4 g/ha: 67%
[1]; Myzus persicae, 24 h, 0.16 g/ha, after 1 d, read-out: Kill in % after 1d
  pest or weed control at 0.16 g/ha: 0%
[3]; [8]
  pest or weed control at 0.8 g/ha: 33%

## CC1(C)[C@H](C(=O)O[C@H](C#N)c2cccc(Oc3ccccc3)c2)[C@@H]1C=C(Br)Br [deltamethrin]
[4]; [9]
  pest or weed control at 0.8 g/ha: 67%
[1]; [10]
  pest or weed control at 0.032 g/ha: 70%
[3]; Spodoptera frugiperda, 144 h, 0.032 g/ha, 6 d, read-out: Kill in % after 6 d
  pest or weed control at 0.032 g/ha: 33%

## CNC(=O)Oc1cc(C)c(SC)c(C)c1 [methiocarb]
[4]; [11]
  pest or weed control at 100 g/ha: 50%
[3]; [12]
  pest or weed control at 100 g/ha: 0%

## CC1(C)C(C=C(Cl)Cl)C1C(=O)OC(C#N)c1ccc(F)c(Oc2ccccc2)c1 (stereo not drawn) [β-cyfluthrin, beta-cyfluthrin]
[4]; [13]
  pest or weed control at 0.8 g/ha: 33%
[1]; [10]
  pest or weed control at 0.032 g/ha: 0%
[2]; [5]
  pest or weed control at 4 g/ha: 0%
[3]; [14]
  pest or weed control at 0.16 g/ha: 0%

## c1cnc(-c2cccc(-c3cnc(-c4cccnc4)s3)n2)nc1 [compound of the formula (I-2)]
[4]; [11]
  pest or weed control at 4 g/ha: 0%
  pest or weed control at 20 g/ha: 0%
  pest or weed control at 100 g/ha: 0%
  pest or weed control at 500 g/ha: 0%
[4]; [7]
  pest or weed control at 4 g/ha: 0%
  pest or weed control at 20 g/ha: 0%
  pest or weed control at 100 g/ha: 0%
  pest or weed control at 500 g/ha: 0%
[1]; [10]
  pest or weed control at 4 g/ha: 0%
  pest or weed control at 20 g/ha: 0%
  pest or weed control at 100 g/ha: 0%
  pest or weed control at 500 g/ha: 0%
[2]; [15]
  pest or weed control at 4 g/ha: 0%
  pest or weed control at 20 g/ha: 0%
  pest or weed control at 500 g/ha: 0%
[2]; [16]
  pest or weed control at 100 g/ha: 0%
[2]; [5]
  pest or weed control at 4 g/ha: 0%
  pest or weed control at 500 g/ha: 0%
[3]; [12]
  pest or weed control at 20 g/ha: 0%
  pest or weed control at 100 g/ha: 0%
  pest or weed control at 500 g/ha: 0%
[3]; [8]
  pest or weed control at 20 g/ha: 0%
  pest or weed control at 100 g/ha: 0%
  pest or weed control at 500 g/ha: 0%

## CNC(=O)O/N=C/C(C)(C)SC [aldicarb]
[2]; [16]
  pest or weed control at 100 g/ha: 0%
[3]; [8]
  pest or weed control at 100 g/ha: 0%

## N#Cc1nn(-c2c(Cl)cc(C(F)(F)F)cc2Cl)c(N)c1[S+]([O-])C(F)(F)F (centres unmarked) [fipronil]
[4]; [9]
  pest or weed control at 0.8 g/ha: 50%
[2]; [17]
  pest or weed control at 100 g/ha: 0%
[3]; [6]
  pest or weed control at 4 g/ha: 0%

## Fc1cncc(-c2ncc(-c3cccc(-c4ncccn4)n3)s2)c1 [compound of the formula (I-3)]
[4]; [11]
  pest or weed control at 4 g/ha: 0%
  pest or weed control at 20 g/ha: 0%
  pest or weed control at 100 g/ha: 0%
  pest or weed control at 500 g/ha: 0%
[4]; [7]
  pest or weed control at 4 g/ha: 0%
  pest or weed control at 100 g/ha: 0%
  pest or weed control at 500 g/ha: 0%
[1]; [10]
  pest or weed control at 4 g/ha: 0%
  pest or weed control at 20 g/ha: 0%
  pest or weed control at 100 g/ha: 0%
  pest or weed control at 500 g/ha: 0%
[1]; [18]
  pest or weed control at 4 g/ha: 70%
  pest or weed control at 20 g/ha: 70%
[2]; [15]
  pest or weed control at 4 g/ha: 0%
  pest or weed control at 20 g/ha: 0%
  pest or weed control at 500 g/ha: 0%
[2]; [5]
  pest or weed control at 4 g/ha: 0%
  pest or weed control at 20 g/ha: 0%
  pest or weed control at 500 g/ha: 0%
[2]; [17]
  pest or weed control at 100 g/ha: 0%
[3]; [12]
  pest or weed control at 500 g/ha: 0%
[3]; [8]
  pest or weed control at 20 g/ha: 0%
  pest or weed control at 100 g/ha: 0%
  pest or weed control at 500 g/ha: 0%

## CNC(=O)c1cc(C#N)cc(C)c1NC(=O)c1cc(Br)nn1-c1ncccc1Cl [Cyazypyr, cyantraniliprole]
[4]; [9]
  pest or weed control at 0.8 g/ha: 50%
[4]; Phaedon cochleariae, 144 h, 0.16 g/ha, 6 d, read-out: Kill in % after 6 d
  pest or weed control at 0.16 g/ha: 33%
[1]; [19]
  pest or weed control at 0.8 g/ha: 0%
[2]; [15]
  pest or weed control at 20 g/ha: 0%
[3]; [8]
  pest or weed control at 0.8 g/ha: 50%

## CNC(=O)c1cc(Cl)cc(C)c1NC(=O)c1cc(Br)nn1-c1ncccc1Cl [chloranthraniliprole, chlorantraniliprole]
[4]; [9]
  pest or weed control at 0.8 g/ha: 67%
[1]; [19]
  pest or weed control at 0.8 g/ha: 0%
[3]; Spodoptera frugiperda, 48 h, 4 g/ha, 2 d, read-out: Kill in % after 2 d
  pest or weed control at 4 g/ha: 67%

## CCOP(=S)(OCC)Oc1nc(Cl)c(Cl)cc1Cl [chlorpyrifos]
[2]; 100 g/ha, 6 d
  Kill in % after 6 d: 0%
[3]; 4 g/ha, 6 d
  Kill in % after 6 d: 0%

## CC1(C)C(/C=C(\Cl)C(F)(F)F)C1C(=O)OC(C#N)c1cccc(Oc2ccccc2)c1 [L-cyhalothrin, lambda-cyhalothrin]
[4]; [13]
  pest or weed control at 0.8 g/ha: 33%
[1]; [10]
  pest or weed control at 0.032 g/ha: 0%
[2]; Tetranychus urticae, foliar, 144 h, 0.8 g/ha, 6 d, read-out: Kill in % after 6 d
  pest or weed control at 0.8 g/ha: 0%
[2]; [5]
  pest or weed control at 4 g/ha: 80%
[3]; [14]
  pest or weed control at 0.16 g/ha: 0%
[3]; [8]
  pest or weed control at 0.8 g/ha: 50%

## emamectin benzoate
[4]; 0.8 g/ha, 2 d
  Kill in % after 2 d: 50%
[1]; 0.16 g/ha, single active compound, 6 d
  Kill in % after 6 d: 0%
[1]; 0.8 g/ha, after 1 d
  Kill in % after 1d: 0%
[2]; 0.032 g/ha, 2 d
  Kill in % after 2 d: 0%
[3]; 0.16 g/ha, 2 d
  Kill in % after 2 d: 0%
